ChEMBL document CHEMBL3734705, “Synthesis and in vitro cytotoxicity of novel C-12 substituted-14-deoxy-andrographolide derivatives as potent anti-cancer agents” (2015)

Legend:
Assay type in all cases: functional
[1] = tested on: SK-MEL-2; assay: Cytotoxicity against human SK-MEL-2 cells assessed as growth level at 10 uM after 48 hrs by SRB assay
[2] = Cytotoxicity against human HL-60(TB) cells after 48 hrs by SRB assay; details: HL-60, 48 h
[3] = Cytotoxicity against human RPMI8226 cells after 48 hrs by SRB assay; details: RPMI-8226, 48 h
[4] = tested on: SR; assay: Cytotoxicity against human SR cells after 48 hrs by SRB assay
[5] = tested on: EKVX; assay: Cytotoxicity against human EKVX cells after 48 hrs by SRB assay
[6] = Cytotoxicity against human HOP92 cells after 48 hrs by SRB assay; details: HOP-92, 48 h
[7] = tested on: NCI-H226; assay: Cytotoxicity against human NCI-H226 cells after 48 hrs by SRB assay; details: NCI-H226, 48 h
[8] = tested on: NCI-H23; assay: Cytotoxicity against human NCI-H23 cells after 48 hrs by SRB assay; details: NCI-H23, 48 h
[9] = tested on: NCI-H460; assay: Cytotoxicity against human NCI-H460 cells after 48 hrs by SRB assay; details: NCI-H460, 48 h
[10] = tested on: NCI-H522; assay: Cytotoxicity against human NCI-H522 cells after 48 hrs by SRB assay; details: NCI-H522, 48 h
[11] = Cytotoxicity against human COLO205 cells after 48 hrs by SRB assay; details: COLO 205, 48 h
[12] = Cytotoxicity against human HCT116 cells after 48 hrs by SRB assay; details: HCT-116, 48 h
[13] = Cytotoxicity against human HCT15 cells after 48 hrs by SRB assay; details: HCT-15, 48 h
[14] = tested on: HT-29; assay: Cytotoxicity against human HT-29 cells after 48 hrs by SRB assay; details: HT-29, 48 h
[15] = tested on: KM12; assay: Cytotoxicity against human KM12 cells after 48 hrs by SRB assay; details: KM12, 48 h
[16] = Cytotoxicity against human SW620 cells after 48 hrs by SRB assay; details: SW-620, 48 h
[17] = Cytotoxicity against human SF268 cells after 48 hrs by SRB assay; details: SF-268, 48 h
[18] = Cytotoxicity against human SNB19 cells after 48 hrs by SRB assay; details: SNB-19, 48 h
[19] = Cytotoxicity against human LOXIMVI cells after 48 hrs by SRB assay; details: LOX IMVI
[20] = tested on: MDA-MB-435; assay: Cytotoxicity against human MDA-MB-435 cells after 48 hrs by SRB assay; details: MDA-MB-435, 48 h
[21] = tested on: SK-MEL-2; assay: Cytotoxicity against human SK-MEL-2 cells after 48 hrs by SRB assay; details: SK-MEL-2, 48 h
[22] = tested on: SK-MEL-28; assay: Cytotoxicity against human SK-MEL-28 cells after 48 hrs by SRB assay; details: SK-MEL-28, 48 h
[23] = Cytotoxicity against human IGROV1 cells after 48 hrs by SRB assay; details: IGROV-1, 48 h
[24] = Cytotoxicity against human OVCAR8 cells after 48 hrs by SRB assay; details: OVCAR-8, 48 h
[25] = Cytotoxicity against human NCI-ADR-RES cells after 48 hrs by SRB assay
[26] = tested on: 786-0; assay: Cytotoxicity against human 786-0 cells after 48 hrs by SRB assay; details: 786-0, 48 h
[27] = tested on: A498; assay: Cytotoxicity against human A498 cells after 48 hrs by SRB assay; details: A498, 48 h
[28] = Cytotoxicity against human Caki1 cells after 48 hrs by SRB assay; details: CAKI-1, 48 h
[29] = tested on: SN12C; assay: Cytotoxicity against human SN12C cells after 48 hrs by SRB assay
[30] = Cytotoxicity against human UO31 cells after 48 hrs by SRB assay; details: UO-31, 48 h
[31] = tested on: MCF7; assay: Cytotoxicity against human MCF7 cells after 48 hrs by SRB assay; details: MCF7, 48 h
[32] = tested on: MDA-MB-231; assay: Cytotoxicity against human MDA-MB-231 cells after 48 hrs by SRB assay; details: MDA-MB-231, 48 h
[33] = tested on: T47D; assay: Cytotoxicity against human T47D cells after 48 hrs by SRB assay
[34] = tested on: MDA-MB-468; assay: Cytotoxicity against human MDA-MB-468 cells after 48 hrs by SRB assay; details: MDA-MB-468, 48 h
[35] = read-out: LC50 (the source's name)

Q: Which Activity [1] does the source give for `C=C1CC[C@@H]2[C@](C)(COC(C)=O)[C@H](OC(C)=O)CC[C@@]2(C)[C@@H]1CC(Nc1ccc(S(=O)(=O)NC(C)=O)cc1)C1=CCOC1=O` (mixture of isomers) here?
A: Its Activity is -7.41%.

Q: And the GI50 [2]?
A: Its GI50 is 2.45 µM.

Q: What about the TGI [2] of the same molecule?
A: Its TGI is 12 µM.

Q: And the CC50 [2, 35]?
A: Its CC50 is greater than 75 µM.

Q: What about the GI50 [3] of the same molecule?
A: The GI50 was 1.84 µM.

Q: What about the LC50 [3] of the same molecule?
A: Its LC50 is greater than 75 µM.

Q: What about the TGI [3] of the same molecule?
A: The TGI was 6.53 µM.

Q: And the GI50 [4]?
A: Its GI50 is 0.99 µM.

Q: And the TGI [4]?
A: Its TGI is 18.1 µM.

Q: And the CC50 [4, 35]?
A: Its CC50 is greater than 75 µM.

Q: And the GI50 [5]?
A: The GI50 was 10.8 µM.

Q: What about the LC50 [5] of the same molecule?
A: The LC50 was 40.3 µM.

Q: And the TGI [5]?
A: The TGI was 20.9 µM.

Q: What about the GI50 [6] of the same molecule?
A: The GI50 was 6.5 µM.

Q: And the LC50 [6]?
A: The LC50 was 35.5 µM.

Q: And the TGI [6]?
A: The TGI was 15.9 µM.

Q: What about the GI50 [7] of the same molecule?
A: The GI50 was 1.92 µM.

Q: What about the LC50 [7] of the same molecule?
A: Its LC50 is greater than 75 µM.

Q: What about the TGI [7] of the same molecule?
A: Its TGI is 4.62 µM.

Q: And the GI50 [8]?
A: The GI50 was 5.52 µM.

Q: And the LC50 [8]?
A: Its LC50 is 46.4 µM.

Q: And the TGI [8]?
A: The TGI was 17.4 µM.

Q: What about the GI50 [9] of the same molecule?
A: The GI50 was 6.72 µM.

Q: What about the TGI [9] of the same molecule?
A: The TGI was 17.9 µM.

Q: And the CC50 [9, 35]?
A: Its CC50 is 44.7 µM.

Q: And the GI50 [10]?
A: The GI50 was 1.44 µM.

Q: What about the LC50 [10] of the same molecule?
A: Its LC50 is 24.1 µM.

Q: What about the TGI [10] of the same molecule?
A: Its TGI is 4.42 µM.

Q: And the GI50 [11]?
A: Its GI50 is 1.81 µM.

Q: And the LC50 [11]?
A: The LC50 was 20 µM.

Q: And the TGI [11]?
A: Its TGI is 4.82 µM.

Q: And the GI50 [12]?
A: The GI50 was 1.67 µM.

Q: What about the LC50 (concentration killing 50% of cells) [12] of the same molecule?
A: The LC50 (concentration killing 50% of cells) was 12.3 µM.

Q: And the TGI [12]?
A: The TGI was 3.66 µM.

Q: And the GI50 [13]?
A: The GI50 was 1.53 µM.

Q: And the LC50 [13]?
A: Its LC50 is 38 µM.

Q: And the TGI [13]?
A: The TGI was 4.36 µM.

Q: What about the GI50 [14] of the same molecule?
A: The GI50 was 1.57 µM.

Q: And the LC50 [14]?
A: The LC50 was 17.9 µM.

Q: And the TGI [14]?
A: Its TGI is 3.55 µM.

Q: And the GI50 [15]?
A: Its GI50 is 5.11 µM.

Q: And the LC50 [15]?
A: Its LC50 is 40.5 µM.

Q: What about the TGI [15] of the same molecule?
A: Its TGI is 15.9 µM.

Q: And the GI50 [16]?
A: The GI50 was 1.61 µM.

Q: And the LC50 [16]?
A: Its LC50 is 9.63 µM.

Q: And the TGI [16]?
A: The TGI was 3.58 µM.

Q: And the GI50 [17]?
A: Its GI50 is 8.78 µM.

Q: And the LC50 [17]?
A: The LC50 was 47.9 µM.

Q: What about the TGI [17] of the same molecule?
A: Its TGI is 20.5 µM.

Q: And the GI50 [18]?
A: Its GI50 is 8.19 µM.

Q: And the LC50 (concentration killing 50% of cells) [18]?
A: The LC50 (concentration killing 50% of cells) was 43.7 µM.

Q: What about the TGI [18] of the same molecule?
A: The TGI was 18.9 µM.

Q: What about the GI50 [19] of the same molecule?
A: The GI50 was 1.25 µM.

Q: And the LC50 [19]?
A: Its LC50 is 4.67 µM.

Q: And the TGI [19]?
A: The TGI was 2.42 µM.

Q: What about the GI50 [20] of the same molecule?
A: Its GI50 is 2.79 µM.

Q: What about the LC50 (50% lethal concentration) [20] of the same molecule?
A: Its LC50 (50% lethal concentration) is 30.6 µM.

Q: And the TGI [20]?
A: The TGI was 10.6 µM.

Q: And the GI50 [21]?
A: Its GI50 is 8.68 µM.

Q: And the LC50 (concentration causing 50% net cell kill) [21]?
A: Its LC50 (concentration causing 50% net cell kill) is 42.1 µM.

Q: And the TGI [21]?
A: Its TGI is 19.1 µM.

Q: What about the GI50 [22] of the same molecule?
A: Its GI50 is 3.69 µM.

Q: And the LC50 (lethal concentration 50%) [22]?
A: Its LC50 (lethal concentration 50%) is 34.2 µM.

Q: What about the TGI [22] of the same molecule?
A: The TGI was 13.2 µM.

Q: And the GI50 [23]?
A: Its GI50 is 5.31 µM.

Q: And the TGI [23]?
A: Its TGI is 15.4 µM.

Q: What about the CC50 [23, 35] of the same molecule?
A: The CC50 was 37.1 µM.

Q: And the GI50 [24]?
A: Its GI50 is 2.25 µM.

Q: And the LC50 [24]?
A: Its LC50 is 38.6 µM.

Q: What about the TGI [24] of the same molecule?
A: Its TGI is 8.42 µM.

Q: What about the GI50 [25] of the same molecule?
A: Its GI50 is 2.51 µM.

Q: And the LC50 [25]?
A: Its LC50 is greater than 75 µM.

Q: What about the TGI [25] of the same molecule?
A: The TGI was 9.14 µM.

Q: What about the GI50 [26] of the same molecule?
A: Its GI50 is 2.44 µM.

Q: And the LC50 [26]?
A: The LC50 was 26.2 µM.

Q: And the TGI [26]?
A: Its TGI is 7.98 µM.

Q: What about the GI50 [27] of the same molecule?
A: Its GI50 is 10.3 µM.

Q: What about the TGI [27] of the same molecule?
A: Its TGI is 20.1 µM.

Q: What about the CC50 [27, 35] of the same molecule?
A: Its CC50 is 39.3 µM.

Q: What about the GI50 [28] of the same molecule?
A: Its GI50 is 3.31 µM.

Q: And the LC50 [28]?
A: Its LC50 is 29 µM.

Q: What about the TGI [28] of the same molecule?
A: The TGI was 11.2 µM.

Q: And the GI50 [29]?
A: The GI50 was 1.78 µM.

Q: And the LC50 (concentration killing 50% of cells) [29]?
A: Its LC50 (concentration killing 50% of cells) is 39.2 µM.

Q: What about the TGI [29] of the same molecule?
A: Its TGI is 5.4 µM.

Q: And the GI50 [30]?
A: Its GI50 is 3.71 µM.

Q: What about the LC50 (concentration killing 50% of cells) [30] of the same molecule?
A: The LC50 (concentration killing 50% of cells) was 31.7 µM.

Q: And the TGI [30]?
A: Its TGI is 13.2 µM.

Q: And the GI50 [31]?
A: Its GI50 is 1.92 µM.

Q: And the LC50 (50% lethal concentration) [31]?
A: The LC50 (50% lethal concentration) was greater than 75 µM.

Q: And the TGI [31]?
A: Its TGI is 11.3 µM.

Q: What about the GI50 [32] of the same molecule?
A: The GI50 was 3.32 µM.

Q: And the LC50 [32]?
A: The LC50 was 35.1 µM.

Q: And the TGI [32]?
A: Its TGI is 11.6 µM.

Q: And the GI50 [33]?
A: Its GI50 is 2.46 µM.

Q: And the LC50 (concentration killing 50% of cells) [33]?
A: The LC50 (concentration killing 50% of cells) was greater than 75 µM.

Q: And the TGI [33]?
A: Its TGI is 12 µM.

Q: And the GI50 [34]?
A: Its GI50 is 1.53 µM.

Q: What about the LC50 [34] of the same molecule?
A: Its LC50 is 6.39 µM.

Q: And the TGI [34]?
A: The TGI was 3.13 µM.
